These results are taken from patent publication US9862711B2, “Pyrazine derivatives as phosphatidylinositol 3-kinase inhibitors” (NOVARTIS AG, priority 2014, dated 2018).

In one test the target is Vps34 (Homo sapiens (Human), UniProt Q8NEB9). The test can be described thus: Kinase Glo Luminescent Kinase Assay (Assay C). It counts as biochemical. The settings on record: 1 μM ATP. An excerpt:
(§1) Kinase Glo Luminescent Kinase Assay (Kglo) for PI 3-Kinase Alpha (A), Pb 3-Kinase Beta (B), Vps34 (C), PI 4-Kinase Beta (D)
(§2) The luminescence-based ATP detection reagent KinaseGlo was obtained from Promega, (Cat. No. V6714, Lot No. 236161) through Catalys, Wallisellen, Switzerland. L-alpha-phosphatidylinositol (PI, liver, bovine) was obtained from Avanti Polar Lipid (Cat. No. 840042C, Lot#LPI-274), Phosphatidylinositol-4,5-bisphosphate (PIP(4,5)2) was also obtained from Avanti Polar Lipid (Cat. No. 840046X). L-α-Phosphatidylserine (PS) was obtained from Avanti Polar Lipid (Cat. No. 840032C), n-Octylglucoside from Avanti Polar Lipid (Cat. No. 10634425001). Luminescence is a well established readout to determine ATP concentrations and can thus be used to follow the activity of many kinases regardless of their substrate. The Kinase Glo Luminescent Kinase Assay (Promega, Madison/WI, USA) is a homogeneous HTS method of measuring kinase activity by quantifying the amount of ATP remaining in solution following a kinase reaction.
(§3) 50 nL of compound dilutions were dispensed onto black 384-well low volume Non Binding Styrene (NBS) plates (Costar Cat. No. NBS#3676). L-α-phosphatidylinositol (PI), provided as 10 mg/ml solution in methanol, was transferred into a glass tube and dried under a nitrogen beam. It was then resuspended in 3% OctylGlucoside (1-O-n-octyl-beta-D-glucopyranoside) by vortexing and stored at 4° C. 5 μL of a mix of PI/OctylGlucoside with the PI 3-kinase alpha and PI 3-kinase beta subtypes, or Vps34 or PI 4-kinase beta were added. Kinase reactions were started by the addition of 5 μl of an ATP-mix containing in a final volume 10 μL 10 mM TRIS-HCl pH 7.5, 3 mM MgCl2, 50 mM NaCl, 0.05% CHAPS, 1 mM DTT and 1 μM ATP at room temperature. Reactions were stopped with 10 μl of KinaseGlo and plates were read 10 mins later in a Synergy2 reader using an integration time of 0.1 seconds per well. 2.5 μM of NVP-BGT226 (1-(3-(trifluoromethyl)-4-(piperazin-1-yl)phenyl)-8-(6-methoxypyridin-3-yl)-3-methyl-1H-imidazo[4,5-c]quinolin-2(3H)-one) was added to the assay plates to generate the 100% inhibition of the kinase reaction, and the 0% inhibition was given by the solvent vehicle (90% DMSO in water). (1-(3-(trifluoromethyl)-4-(piperazin-1-yl)phenyl)-8-(6-methoxypyridin-3-yl)-3-methyl-1H-imidazo[4,5-c]quinolin-2(3H)-one) was used as a reference compound and included in all assay plates in the form of 16 dilution points in duplicate.
(§4) IC50 values of the percentage inhibition of each compound at 8 concentrations (10, 3.0, 1.0, 0.3, 0.1, 0.030, 0.010 and 0.003 μM) n=2 were derived by fitting a sigmoidal dose-response curve to a plot of assay readout over inhibitor concentration as described. All fits were performed with the program XLfit4 (ID Business Solutions, Guildford, UK).
For orientation: Kinase-Glo measures the ATP left after a reaction by luminescence.

The target in a further test is PI 3-kinase beta (Homo sapiens (Human), UniProt P42338). Kind of test: Kinase Glo Luminescent Kinase Assay (Assay B). It counts as biochemical. The settings on record: 1 μM ATP, read-out: Assay B PI3Kβ IC50.
Excerpt: as §1, §2, §3, §4

Molecules are shown by their SMILES.

Sequence of PI 3-kinase beta (P42338 2-1070): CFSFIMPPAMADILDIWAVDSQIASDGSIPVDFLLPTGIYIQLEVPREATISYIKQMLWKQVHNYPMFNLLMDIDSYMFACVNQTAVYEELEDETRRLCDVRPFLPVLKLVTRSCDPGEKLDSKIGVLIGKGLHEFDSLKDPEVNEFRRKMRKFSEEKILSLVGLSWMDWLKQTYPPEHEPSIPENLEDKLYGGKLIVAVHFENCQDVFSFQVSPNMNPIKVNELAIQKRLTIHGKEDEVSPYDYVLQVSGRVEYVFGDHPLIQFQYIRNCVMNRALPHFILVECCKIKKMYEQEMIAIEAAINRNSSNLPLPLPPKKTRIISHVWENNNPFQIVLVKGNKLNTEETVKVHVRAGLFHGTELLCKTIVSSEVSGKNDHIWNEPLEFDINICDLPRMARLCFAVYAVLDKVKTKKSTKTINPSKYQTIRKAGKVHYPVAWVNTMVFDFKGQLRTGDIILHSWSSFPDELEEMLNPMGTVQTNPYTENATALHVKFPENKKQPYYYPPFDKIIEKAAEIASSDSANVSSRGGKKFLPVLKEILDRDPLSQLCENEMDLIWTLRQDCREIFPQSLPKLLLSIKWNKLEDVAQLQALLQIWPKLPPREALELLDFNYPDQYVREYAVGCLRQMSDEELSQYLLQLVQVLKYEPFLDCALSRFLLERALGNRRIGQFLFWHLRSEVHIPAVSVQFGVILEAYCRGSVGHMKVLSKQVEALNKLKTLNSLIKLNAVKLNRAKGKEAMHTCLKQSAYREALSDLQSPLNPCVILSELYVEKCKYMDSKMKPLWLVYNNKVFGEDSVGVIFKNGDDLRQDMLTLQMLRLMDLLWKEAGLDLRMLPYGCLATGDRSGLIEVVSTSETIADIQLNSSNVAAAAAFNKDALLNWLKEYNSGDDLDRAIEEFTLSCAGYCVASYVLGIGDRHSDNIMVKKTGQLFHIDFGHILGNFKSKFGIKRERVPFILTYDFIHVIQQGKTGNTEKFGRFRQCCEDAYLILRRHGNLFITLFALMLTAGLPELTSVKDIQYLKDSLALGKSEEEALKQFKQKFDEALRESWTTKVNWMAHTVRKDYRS
Sequence of Vps34 (Q8NEB9 whole entry, species assumed): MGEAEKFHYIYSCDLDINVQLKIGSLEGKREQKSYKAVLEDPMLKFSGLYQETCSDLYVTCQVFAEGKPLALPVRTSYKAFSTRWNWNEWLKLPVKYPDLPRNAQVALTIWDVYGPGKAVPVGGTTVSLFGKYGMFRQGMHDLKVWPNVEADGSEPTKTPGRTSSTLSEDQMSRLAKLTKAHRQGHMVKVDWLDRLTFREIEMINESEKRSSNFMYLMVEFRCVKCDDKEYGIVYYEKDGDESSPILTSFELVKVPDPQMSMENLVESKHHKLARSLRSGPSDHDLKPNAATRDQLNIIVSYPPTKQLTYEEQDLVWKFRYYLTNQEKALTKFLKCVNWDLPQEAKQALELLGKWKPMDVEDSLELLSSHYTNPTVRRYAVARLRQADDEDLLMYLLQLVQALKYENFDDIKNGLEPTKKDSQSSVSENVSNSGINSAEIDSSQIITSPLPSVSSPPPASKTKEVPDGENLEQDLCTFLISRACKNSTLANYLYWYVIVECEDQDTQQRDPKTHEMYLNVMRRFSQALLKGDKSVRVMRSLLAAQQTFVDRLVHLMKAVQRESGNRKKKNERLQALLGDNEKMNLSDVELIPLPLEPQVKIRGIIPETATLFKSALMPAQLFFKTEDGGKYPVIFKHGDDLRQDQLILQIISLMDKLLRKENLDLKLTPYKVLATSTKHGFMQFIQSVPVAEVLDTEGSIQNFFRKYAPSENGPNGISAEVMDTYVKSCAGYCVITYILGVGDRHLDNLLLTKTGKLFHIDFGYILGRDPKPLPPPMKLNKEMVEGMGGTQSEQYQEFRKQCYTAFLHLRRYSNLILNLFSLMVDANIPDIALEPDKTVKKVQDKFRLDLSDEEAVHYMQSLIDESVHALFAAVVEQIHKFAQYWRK

Usually IC50 stands for the concentration that gives 50% inhibition. For `Cc1ccc(S(=O)(=O)NCC2(C)COC2)cc1-c1cncc(-c2cn(C)nc2C)n1` [Example 4, Trans 3-[6-(1,3-Dimethyl-1H-pyrazol-4-yl)-pyrazin-2-yl]-4-methyl-N-(3-methyl-oxetan-3-ylmethyl)-benzenesulfonamide], the IC50 at Vps34 was 4.3 µM; on PI 3-kinase beta, 0.68 µM.
As for `Cc1ccc(S(=O)(=O)NCCC(C)(C)O)cc1-c1cncc(-c2cn(CCN3CCOCC3)nc2C)n1` [Example 10, N-(3-Hydroxy-3-methyl-butyl)-4-methyl-3-{6-[3-methyl-1-(2-morpholin-4-yl-ethyl)-1H-pyrazol-4-yl]-pyrazin-2-yl}-benzenesulfonamide], the figures for the IC50 on Vps34 and on PI 3-kinase beta were more than 10 µM and 8.5 µM, respectively.
The like results for `Cc1ccc(S(=O)(=O)N[C@H]2CC[C@H](O)CC2)cc1-c1cncc(-c2cccnc2)n1` [Example 11, Trans N-(4-Hydroxy-cyclohexyl)-4-methyl-3-(6-pyridin-3-yl-pyrazin-2-yl)-benzenesulfonamide] were, in that order, 3.08 µM and 3.93 µM.
For `Cc1ccc(S(=O)(=O)NCCC(C)(C)O)cc1-c1cncc(-c2cn(C)nc2C)n1` [Example 3, 3-[6-(1,3-Dimethyl-1H-pyrazol-4-yl)-pyrazin-2-yl]-N-(3-hydroxy-3-methyl-butyl)-4-methyl-benzenesulfonamide], the IC50 at Vps34 was 5.3 µM; on PI 3-kinase beta, 1.45 µM.
Consider `Cc1ncc(-c2cncc(-c3cc(S(=O)(=O)NCCCO)ccc3C)n2)s1` [Example 1, N-(3-Hydroxy-propyl)-4-methyl-3-[6-(2-methyl-thiazol-5-yl)-pyrazin-2-yl]-benzenesulfonamide], for which the IC50 on Vps34 was 3.07 µM; at PI 3-kinase beta it was 6.16 µM.
Taken in the same sequence, the figures for `Cc1ccc(S(=O)(=O)NCC(C)(C)CO)cc1-c1cncc(-c2cn(C)nc2C)n1` [Example 8, 3-[6-(1,3-Dimethyl-1H-pyrazol-4-yl)-pyrazin-2-yl]-N-(3-hydroxy-2,2-dimethyl-propyl)-4-methyl-benzenesulfonamide] were 4.4 µM and 0.68 µM.
Turning to `Cc1ncc(-c2cncc(-c3cc(S(=O)(=O)N[C@H]4CC[C@H](O)CC4)ccc3C)n2)s1` [Example 5, Trans N-(4-Hydroxycyclohexyl)-4-methyl-3-(6-(2-methylthiazol-5-yl)pyrazin-2-yl)benzenesulfonamide], the values for the 50% inhibitory concentration (IC50) on Vps34 and on PI 3-kinase beta were 1.81 µM and 1.12 µM, respectively.
For the compound `Cc1ccc(S(=O)(=O)NCC(C)(C)O)cc1-c1cncc(-c2cn(C)nc2C)n1` [Example 2, 3-[6-(1,3-Dimethyl-1H-pyrazol-4-yl)-pyrazin-2-yl]-N-(2-hydroxy-2-methyl-propyl)-4-methyl-benzenesulfonamide], the values for the half-maximal inhibitory concentration (IC50) on Vps34 and on PI 3-kinase beta were 3.45 µM and 0.71 µM, respectively.
Taken in the same sequence, the figures for `Cc1ccc(S(=O)(=O)NCCC(C)(C)O)cc1-c1cncc(-c2cnn(CCN3CCOCC3)c2)n1` [Example 9, N-(3-Hydroxy-3-methyl-butyl)-4-methyl-3-{6-[1-(2-morpholin-4-yl-ethyl)-1H-pyrazol-4-yl]-pyrazin-2-yl}-benzenesulfonamide] were more than 9.1 µM and more than 9.1 µM.
